Reference: ChEMBL document CHEMBL4428094, “Insights into the structure-activity relationship of the anticancer compound ZJ-101, a derivative of marine natural product superstolide A: A role played by the lactone moiety” (Bioorg Med Chem Lett, 2016)
pIC50: −log10 of the molar value.

How the values were obtained:
Assay type in all cases: functional, cell-based
HCT-116 = assay: Antiproliferative activity against human HCT116 cells assessed as reduction in cell viability by Alamar blue assay
SF-295 = assay: Antiproliferative activity against human SF295 cells assessed as reduction in cell viability by Alamar blue assay
HeLa = assay: Antiproliferative activity against human HeLa cells assessed as reduction in cell viability by Alamar blue assay
MDA-MB-231 = assay: Antiproliferative activity against human MDA-MB-231 cells assessed as reduction in cell viability by Alamar blue assay
MCF7 = assay: Antiproliferative activity against human MCF7 cells assessed as reduction in cell viability by Alamar blue assay

Row | SMILES | pIC50 (HCT-116) | pIC50 (SF-295) | pIC50 (HeLa) | pIC50 (MDA-MB-231) | pIC50 (MCF7)
1 | CC(=O)N[C@H](C)[C@@H](O)[C@@H](C)[C@@H]1OC(=O)/C=C/C=C(C)\C=C\[C@]2(C)CCC=C[C@@H]2/C=C(C)/C=C/[C@H]1C | 7.03 | 7.20 | 7.12 | – | –
2 | CC(=O)N[C@H](C)[C@@H](O)[C@@H](C)[C@@H]1NC(=O)/C=C/C=C(C)\C=C\[C@]2(C)CCC=C[C@@H]2/C=C(C)/C=C/[C@H]1C | 6.13 | 6.14 | 6.22 | 6.23 | 6.35
